Here are results for three compounds from ChEMBL document CHEMBL1135928, “Binding mode analysis of 3-(4-benzoyl-1-methyl-1H-2-pyrrolyl)-N-hydroxy-2-propenamide: a new synthetic histone deacetylase inhibitor inducing histone hyperacetylation, growth inhibition, and terminal cell differentiation” (J Med Chem, 2002).

Molecules are shown by their SMILES.

Test [1] deals with T1, Histone deacetylase 1 (Mus musculus, UniProt O09106). In words: Binding affinity towards HDAC1 (Histone deacetylase 1) in mouse A20 cells, expressed as binding constant (pKi). Type of test: cell-based.
In test [2] the target is T1, Histone deacetylase 1. As to the kind of experiment: In vitro for anti-HDAC1 (Histone deacetylase 1) activity in mouse A20 cells. Type of test: cell-based.

T1 sequence (O09106 whole entry): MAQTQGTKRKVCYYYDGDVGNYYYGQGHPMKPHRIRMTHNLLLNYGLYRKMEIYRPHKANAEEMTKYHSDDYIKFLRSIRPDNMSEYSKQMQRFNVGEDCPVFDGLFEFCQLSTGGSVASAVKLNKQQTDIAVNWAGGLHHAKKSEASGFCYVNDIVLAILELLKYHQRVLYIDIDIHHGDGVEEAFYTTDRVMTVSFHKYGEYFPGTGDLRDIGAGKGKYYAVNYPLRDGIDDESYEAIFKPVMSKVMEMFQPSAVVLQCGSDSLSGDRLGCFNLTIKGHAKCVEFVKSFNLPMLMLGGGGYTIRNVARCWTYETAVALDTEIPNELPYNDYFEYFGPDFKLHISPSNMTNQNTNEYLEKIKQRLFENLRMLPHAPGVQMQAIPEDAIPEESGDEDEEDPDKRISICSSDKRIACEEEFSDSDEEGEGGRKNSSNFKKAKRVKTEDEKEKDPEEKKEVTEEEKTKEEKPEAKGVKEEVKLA

In the case of `Cc1ccc(C(=O)c2cc(/C=C/C(=O)NO)n(C)c2)cc1`, on Histone deacetylase 1 [1], the Ki was 2.69 µM. In addition, on Histone deacetylase 1 [2], the IC50 was determined as 4.5 µM.
On the same counts, the results for `Cn1cc(C(=O)c2ccccc2)cc1/C=C/C(=O)NO` are 2.95 µM and 4.9 µM.
On the same counts, the results for `CN(C)c1ccc(C(=O)c2cc(/C=C/C(=O)NO)n(C)c2)cc1` are 2.51 µM and 4.2 µM.
